{"source": "paper PMC8100298", "about": "“Histone deacetylase inhibitor resminostat in combination with sorafenib counteracts platelet-mediated pro-tumoral effects in hepatocellular carcinoma” (Scientific Reports, 2021)", "key": {"[1]": {"test_system": "PLC/PRF/5 and SNU-475 cells", "assay": "ELISA for growth factors PDGF-AA, TGF and VEGF", "format": "cell-based", "settings": "tissue culture supernatants, with or without platelets (Fig. S4B)", "procedure": "A. The growth factors PDGF-AA, TGFβ and VEGF were determined from tissue culture supernatants by ELISA. PLC/PRF/5 and SNU-475 cells were cultured with increasing […]\n(1 picture or pasted object on this page, not shown here) […]\namounts of platelets. In parallel, platelets were cultured without cells to determine if the growth factors were platelet derived.\nB. ELSIAs for PDGF-AA, TGFβ and VEGF were performed after drug treatment of PC/PRF/5 and SNU-475 cells. Cells were cultured as indicated with or without platelets and treated with resminostat, sorafenib, the drug combination or vehicle control 0.1% DMSO.\nTable S1_ EC50 cell line screen\nS1D. The cancer cell lines, their tissue origins and the respective EC50 values are shown.\nEach cell line was seeded in duplicates."}, "JIMT1": {"test_system": "JIMT1", "assay": "Efficacy screening assay", "format": "cell-based", "settings": "JIMT1, breast; for pEC50: read-out: EC50", "procedure": "(§1) The experiment was performed by Oncolead GmbH & Co. KG (Karlsfeld , Germany), based on a standardized screening procedure . Cell lines were purchased directly from the ATCC, NCI and DSMZ cell line c ollections. Cells used for the study had undergone less than 20 passages. To ensure the absence of potential contamination and wrong assignment, all cell lines were tested using a whole genome assay (Agilent, USA). All cell lines were grown as recommended by the suppliers and with addition of 100 U/mL penicillin G and 100 µg/mL; streptomycin. Cell growth and treatments were performed in Nunclon D 96 -well plates (NUNC, Germany). The optimal seeding density for each cell line was determined to ensure exponential growth for the duration of the experiment. All cells growing without anti-cancer agents were sub-conﬂuent by the end of the treatment, as determined by visual inspection.\n(§2) After an initial 24 h pre-growth period, the compounds were added. The vehicle concentration […]\n(§3) was 0.1% DMSO. After incubation at 37°C for 72 h, the culture medium was aspirated, and the cells were precipitated by the addition of 10% trichloroacetic acid (Sigma-Aldrich, Missouri, US). After overnight incubation at 4°C, the plates were washed three times with deionized water. The precipitates were then stained with SRB (0.4% wt/v sulforhodamine B solution in 1% acetic acid, Sigma-Aldrich, Missouri, US). Afterwards, the plates were washed six times with 1% acetic acid to remove unbound stain. After drying the plates at room temperature, the bound SRB was solubilized with 10 mM Tris base and the optical density was measured at 520 nm using a Victor2 plate reader (Perkin Elmer, Germany). Blank OD values were subtracted from mean OD values for each concentration. The nonlinear curve ﬁtting and EC50 calculations were per formed using XLﬁt and algorithm “205” (ID Business […]\n(§4) Multiplicity adjusted p-values with 95% confidence interval was applied. For the invasion assays in Figure 4, one-way ANOVA with multiple comparison testing (Tukey) was performed. Multiplicity adjusted p-values with 95% confidence interval was applied. The adjusted p-values comparing vehicle control without vs. with platelets and compound"}, "J82": {"test_system": "J82", "assay": "Efficacy screening assay", "format": "cell-based", "settings": "J82, bladder; for pEC50: read-out: EC50", "procedure": "as §1, §2, §3, §4"}, "IGROV1": {"test_system": "IGROV1", "assay": "Efficacy screening assay", "format": "cell-based", "settings": "IGROV1, ovary; for pEC50: read-out: EC50", "procedure": "as §1, §2, §3, §4"}, "MDAMB435": {"test_system": "MDAMB435", "assay": "Efficacy screening assay", "format": "cell-based", "settings": "MDAMB435, skin; for pEC50: read-out: EC50", "procedure": "as §1, §2, §3, §4"}, "MG63": {"test_system": "MG63", "assay": "Efficacy screening assay", "format": "cell-based", "settings": "MG63, bone; for pEC50: read-out: EC50", "procedure": "as §1, §2, §3, §4"}, "MDAMB468": {"test_system": "MDAMB468", "assay": "Efficacy screening assay", "format": "cell-based", "settings": "MDAMB468, breast; for pEC50: read-out: EC50", "procedure": "as §1, §2, §3, §4"}, "MHHES1": {"test_system": "MHHES1", "assay": "Efficacy screening assay", "format": "cell-based", "settings": "MHHES1, bone; for pEC50: read-out: EC50", "procedure": "as §1, §2, §3, §4"}, "IMR90": {"test_system": "IMR90", "assay": "Efficacy screening assay", "format": "cell-based", "settings": "Homo sapiens, IMR-90, IMR90, lung, 72 h", "procedure": "as §1, §2, §3, §4"}, "UO31": {"test_system": "UO31", "assay": "Efficacy screening assay", "format": "cell-based", "settings": "UO31, kidney; for pEC50: read-out: EC50", "procedure": "as §1, §2, §3\n(§5) For comparison of EC50 values in Figure 1F, one-way ANOVA with multiple comparison testing (Tukey) was performed. Multiplicity adjusted p -values for the EC50 with sorafenib versus resminostat for each cell line and comparison between cell lines for sorafenib are presented (95% confidence interval for significance testing). For comparison of EC50 data in Figure 2B, one-way ANOVA with multiple comparison testing (Tukey) was performed. Multiplicity adjusted p-values with 95% confidence interval was applied. For the invasion assays in Figure 4, one-way ANOVA with multiple comparison testing (Tukey) was performed. Multiplicity adjusted p-values with 95% confidence interval was applied. The adjusted p-values comparing vehicle control without vs. with platelets and compound"}, "HS578T": {"test_system": "HS578T", "assay": "Efficacy screening assay", "format": "cell-based", "settings": "72 h, breast; for pEC50: read-out: EC50", "procedure": "as §1, §2, §3, §5"}, "OVCAR3": {"test_system": "OVCAR3", "assay": "Efficacy screening assay", "format": "cell-based", "settings": "OVCAR3, ovary; for pEC50: read-out: EC50", "procedure": "as §1, §2, §3, §5"}, "[2]": {"test_system": "Class I HDAC1, 2, 3, and 8; class II b HDAC6 and 10; and class IV HDAC11", "assay": "In vitro HDAC activity assay", "format": "biochemical, human", "settings": "in words, from IC50 calculation (Fig. S1A)", "protocol": "In vitro HDAC inhibition assay\nThe half maximal HDAC-inhibitory concentrations (IC50) of resminostat w ere determined by\nin vitro HDAC activity assays (Reaction Biology Corporation RBC, Pennsylvania, USA). For\nthe assay, resminostat was dissolved in DMSO and a dilution series with 10 concentrations\nwas used. The inhibitory activity of resminostat was tested on purified recombinant human\nHDAC1-11. HDAC1-11 were produced using a baculovirus express ion system (human\nHDAC1: cat# 50051, BPS, California, US; human HDAC2: cat# KDA-21-277, RBC,\nPennsylvania, USA; human HDAC3: cat# KDA -22-278, RBC, Pennsylvania, USA; human\nHDAC4: cat# 50004 BPS, California, US; human HDAC5: cat# KDA-21-280, RBC, […]\nactivities of HDAC1 to 11 were assessed using acetylated AMC (7-amino-4-methycoumarin)-\nlabelled fluorogenic peptide substrates: fluorogenic peptide from p53 residues 379-382 (RHKK(Ac)AMC) for HDAC1, 2, 3, 6, 10, 11; fluorogenic HDAC Class IIa Substrate (Trifluoro acetyl Lysine, Ac-LGK(TFA)-AMC) for HDAC 4, 5, 7, 9; and fluorogenic peptide from p53 residues 379-382 (RHK(Ac)K(Ac)AMC) for HDAC8. […] In a second step, the deacetylated products were digested by the addition of developer for 1 h at 30°C to produce the fluorescent signal proportional to the amount of deacetylated substrates and the fluorescence was measured using an Envision plate reader at 355 nm (excitation) and 460 nm (emission). […]"}}, "note": "pEC50: −log10 of the molar value. Read-outs that look alike come from different tables or passages of the source."}
{"smiles": "CN(C)Cc1ccc(S(=O)(=O)n2ccc(/C=C/C(=O)NO)c2)cc1", "note": "[resminostat, Resminostat]", "values": [{"measurement": "growth factors released by platelets or secreted by HCC cells", "setting": "[1]", "result": "not consistantly affected"}, {"measurement": "EC50", "setting": "JIMT1; Homo sapiens, JIMT-1, 72 h, log of EC50, negative, read-out: log(EC50) (converted)", "result": 3.02, "unit": "µM"}, {"measurement": "pEC50", "setting": "JIMT1; Homo sapiens, JIMT-1, 72 h", "result": 5.52}, {"measurement": "pEC50", "setting": "JIMT1; 72 h", "result": 5.52}, {"measurement": "EC50", "setting": "J82; Homo sapiens, J82, 72 h, log of EC50, negative, read-out: log(EC50) (converted)", "result": 5.62, "unit": "µM"}, {"measurement": "pEC50", "setting": "J82; Homo sapiens, J82, 72 h", "result": 5.25}, {"measurement": "pEC50", "setting": "J82; 72 h", "result": 5.25}, {"measurement": "EC50", "setting": "IGROV1; Homo sapiens, IGROV-1, 72 h, log of EC50, negative, read-out: log(EC50) (converted)", "result": 1.91, "unit": "µM"}, {"measurement": "pEC50", "setting": "IGROV1; Homo sapiens, IGROV-1, 72 h", "result": 5.72}, {"measurement": "pEC50", "setting": "IGROV1; 72 h", "result": 5.73}, {"measurement": "EC50", "setting": "MDAMB435; Homo sapiens, MDA-MB-435, 72 h, log of EC50, negative, read-out: log(EC50) (converted)", "result": 2.09, "unit": "µM"}, {"measurement": "pEC50", "setting": "MDAMB435; Homo sapiens, MDA-MB-435, 72 h", "result": 5.68}, {"measurement": "pEC50", "setting": "MDAMB435; 72 h", "result": 5.68}, {"measurement": "EC50", "setting": "MG63; Homo sapiens, MG-63, 72 h, log of EC50, negative, read-out: log(EC50) (converted)", "result": 1.74, "unit": "µM"}, {"measurement": "pEC50", "setting": "MG63; Homo sapiens, MG-63, 72 h", "result": 5.76}, {"measurement": "pEC50", "setting": "MG63; 72 h", "result": 5.76}, {"measurement": "EC50", "setting": "MDAMB468; Homo sapiens, MDA-MB-468, 72 h, log of EC50, negative, read-out: log(EC50) (converted)", "result": 2.29, "unit": "µM"}, {"measurement": "pEC50", "setting": "MDAMB468; Homo sapiens, MDA-MB-468, 72 h", "result": 5.64}, {"measurement": "pEC50", "setting": "MDAMB468; 72 h", "result": 5.64}, {"measurement": "EC50", "setting": "MHHES1; Homo sapiens, MHH-ES-1, 72 h, log of EC50, negative, read-out: log(EC50) (converted)", "result": 1.38, "unit": "µM"}, {"measurement": "pEC50", "setting": "MHHES1; Homo sapiens, MHH-ES-1, 72 h", "result": 5.86}, {"measurement": "pEC50", "setting": "MHHES1; 72 h", "result": 5.86}, {"measurement": "EC50", "setting": "IMR90; log of EC50, negative, read-out: log(EC50) (converted)", "result": 11, "unit": "µM"}, {"measurement": "pEC50", "setting": "IMR90; read-out: EC50", "result": 4.96}, {"measurement": "EC50", "setting": "UO31; Homo sapiens, UO-31, 72 h, log of EC50, negative, read-out: log(EC50) (converted)", "result": 0.0724, "unit": "µM"}, {"measurement": "pEC50", "setting": "UO31; Homo sapiens, UO-31, 72 h", "result": 7.14}, {"measurement": "pEC50", "setting": "UO31; 72 h", "result": 7.15}, {"measurement": "EC50", "setting": "HS578T; Homo sapiens, Hs-578T, log of EC50, negative, read-out: log(EC50) (converted)", "result": 3.98, "unit": "µM"}, {"measurement": "pEC50", "setting": "HS578T; Homo sapiens, Hs-578T", "result": 5.40}, {"measurement": "pEC50", "setting": "HS578T", "result": 5.39}, {"measurement": "EC50", "setting": "OVCAR3; Homo sapiens, OVCAR-3, 72 h, log of EC50, negative, read-out: log(EC50) (converted)", "result": 3.55, "unit": "µM"}, {"measurement": "pEC50", "setting": "OVCAR3; Homo sapiens, OVCAR-3, 72 h", "result": 5.45}, {"measurement": "pEC50", "setting": "OVCAR3; 72 h", "result": 5.45}, {"measurement": "inhibition of HDAC activity", "setting": "[2]", "result": "inhibits the activity"}]}
